Where two headings read alike, the source gives them in different places.
What was measured:
Format in all cases: biochemical
NDM-1 = NDM-1 (Klebsiella pneumoniae, UniProt C7C422); assay: Inhibitory activity on MBL, fluorescent substrate FC-5
SHV-12 = target: T1, SHV-12 (UniProt P0AD64, L31Q/G234S/E235K, species not given); assay: Inhibitory activity on SBL, fluorescent substrate FC-5; settings: for IC50: read-out: Inhibitory activity on SBL SHV-12 (IC50 class)
T1 sequence (P0AD64 1-286 L31Q/G234S/E235K): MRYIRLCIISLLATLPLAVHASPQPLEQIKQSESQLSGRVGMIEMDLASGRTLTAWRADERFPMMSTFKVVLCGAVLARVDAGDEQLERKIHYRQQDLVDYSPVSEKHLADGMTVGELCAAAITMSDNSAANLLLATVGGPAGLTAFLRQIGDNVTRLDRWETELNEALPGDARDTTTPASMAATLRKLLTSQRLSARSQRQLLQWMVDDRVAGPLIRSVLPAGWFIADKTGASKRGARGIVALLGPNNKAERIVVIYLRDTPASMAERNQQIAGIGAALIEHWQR

TEM-1 = TEM-1 (Escherichia coli, UniProt P62593); assay: as above; settings: for IC50: read-out: Inhibitory activity on SBL TEM-1 (IC50 class); for inhibitory activity on TEM-1 compared to avibactam: comparison in words
Sequence of TEM-1 (P62593 24-286 limits assumed): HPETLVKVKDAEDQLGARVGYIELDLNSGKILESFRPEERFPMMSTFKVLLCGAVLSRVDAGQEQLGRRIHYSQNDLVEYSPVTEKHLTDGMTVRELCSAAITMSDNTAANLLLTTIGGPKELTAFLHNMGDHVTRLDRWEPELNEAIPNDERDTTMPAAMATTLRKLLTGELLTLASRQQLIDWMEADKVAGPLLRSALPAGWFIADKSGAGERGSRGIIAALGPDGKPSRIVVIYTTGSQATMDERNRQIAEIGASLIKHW

OXA-48 = OXA-48 (Klebsiella pneumoniae, UniProt Q6XEC0); assay: as above; settings: for inhibitory activity on OXA-48 compared to avibactam: comparison in words
Sequence of OXA-48 (Q6XEC0 23-265 limits assumed): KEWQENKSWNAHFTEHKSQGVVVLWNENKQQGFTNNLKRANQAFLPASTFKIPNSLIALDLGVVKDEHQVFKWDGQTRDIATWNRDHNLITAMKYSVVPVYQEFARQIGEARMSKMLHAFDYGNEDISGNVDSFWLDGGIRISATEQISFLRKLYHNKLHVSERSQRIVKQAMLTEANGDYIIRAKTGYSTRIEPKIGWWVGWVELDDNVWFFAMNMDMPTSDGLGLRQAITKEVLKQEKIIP

CTX-M-14 = CTX-M-14 (Escherichia coli, UniProt Q9L5C7); assay: as above; settings: for inhibitory activity on CTX-M-14 compared to avibactam: comparison in words
Sequence of CTX-M-14 (Q9L5C7 entry or part of it): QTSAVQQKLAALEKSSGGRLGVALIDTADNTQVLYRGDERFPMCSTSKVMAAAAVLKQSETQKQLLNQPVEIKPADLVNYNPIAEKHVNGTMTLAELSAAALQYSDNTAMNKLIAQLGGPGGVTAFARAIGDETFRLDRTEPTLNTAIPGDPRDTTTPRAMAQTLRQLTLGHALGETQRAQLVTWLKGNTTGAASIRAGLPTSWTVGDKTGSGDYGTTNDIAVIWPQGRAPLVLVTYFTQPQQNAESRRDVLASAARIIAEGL

KPC-2 = KPC-2 (Klebsiella pneumoniae, UniProt Q9F663); assay: as above; settings: for inhibitory activity on KPC-2 compared to avibactam: comparison in words
Sequence of KPC-2 (Q9F663 25-293 limits assumed): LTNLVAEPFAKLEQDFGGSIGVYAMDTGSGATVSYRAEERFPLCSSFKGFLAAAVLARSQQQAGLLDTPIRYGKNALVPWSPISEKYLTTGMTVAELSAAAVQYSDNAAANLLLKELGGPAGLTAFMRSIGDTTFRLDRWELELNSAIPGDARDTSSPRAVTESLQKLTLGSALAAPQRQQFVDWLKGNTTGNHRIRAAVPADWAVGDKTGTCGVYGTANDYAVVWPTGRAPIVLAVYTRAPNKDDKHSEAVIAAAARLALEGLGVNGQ

VIM-1 = VIM-1 (Pseudomonas aeruginosa, UniProt A0A0F7KYQ8); assay: Inhibitory activity on MBL, fluorescent substrate FC-5
VIM-2 = VIM-2 (Escherichia coli, UniProt Q5U7L7); assay: as above
IMP-1 = IMP-1 (Serratia marcescens, UniProt P52699); assay: as above
Sequence of IMP-1 (P52699 19-246 limits assumed): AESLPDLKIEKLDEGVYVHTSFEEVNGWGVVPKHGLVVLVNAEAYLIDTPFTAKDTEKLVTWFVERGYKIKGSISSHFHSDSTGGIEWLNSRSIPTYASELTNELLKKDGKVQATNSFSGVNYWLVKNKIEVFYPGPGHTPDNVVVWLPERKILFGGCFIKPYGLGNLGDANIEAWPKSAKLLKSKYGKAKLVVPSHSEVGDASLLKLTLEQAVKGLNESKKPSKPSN

NDM-5 = NDM-5 (Klebsiella pneumoniae, UniProt C7C422, M154L/V88L); assay: as above
Sequence of NDM-5 (C7C422 29-270 V88L/M154L): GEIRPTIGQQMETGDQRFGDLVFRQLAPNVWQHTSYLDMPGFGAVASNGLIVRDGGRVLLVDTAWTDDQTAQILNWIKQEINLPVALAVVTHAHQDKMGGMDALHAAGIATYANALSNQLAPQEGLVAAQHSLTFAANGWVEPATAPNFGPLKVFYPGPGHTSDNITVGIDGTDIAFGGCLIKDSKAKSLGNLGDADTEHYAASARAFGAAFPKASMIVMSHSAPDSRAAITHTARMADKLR

[1] = read-out: Inhibitory activity on MBL NDM-1 (IC50 class)
[2] = read-out: inhibitory activity at a nanomolar-level on NDM-1
[3] = read-out: Inhibitory activity on SBL OXA-48 (IC50 class)
[4] = read-out: Inhibitory activity on SBL CTX-M-14 (IC50 class)
[5] = read-out: Inhibitory activity on SBL KPC-2 (IC50 class)
[6] = VIM-1 and/or VIM-2, read-out: inhibitory activity at a nanomolar-level on VIM-1 and/or VIM-2
[7] = read-out: Inhibitory activity on MBL VIM-1 (IC50 class)
[8] = read-out: Inhibitory activity on MBL VIM-2 (IC50 class)
[9] = read-out: Inhibitory activity on MBL IMP-1 (IC50 class)
[10] = read-out: Inhibitory activity on MBL NDM-5 (IC50 class)
[11] = read-out: inhibitory activity at a nanomolar-level on NDM-5
[12] = IMP-1 and/or IMP-4, read-out: inhibitory activity at a nanomolar-level on IMP-1 and/or IMP-4

Sequence of NDM-1 (C7C422 29-270 limits assumed): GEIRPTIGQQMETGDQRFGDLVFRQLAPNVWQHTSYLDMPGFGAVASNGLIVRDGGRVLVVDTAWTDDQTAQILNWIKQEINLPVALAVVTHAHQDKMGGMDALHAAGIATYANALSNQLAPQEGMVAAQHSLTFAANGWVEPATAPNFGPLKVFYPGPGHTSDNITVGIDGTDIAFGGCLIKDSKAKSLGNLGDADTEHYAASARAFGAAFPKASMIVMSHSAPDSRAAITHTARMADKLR

Row | SMILES | IC50 (NDM-1; [1]) [nM] | IC50 (NDM-1; [2]) [nM] | IC50 (SHV-12) [nM] | IC50 (TEM-1) [nM] | IC50 (OXA-48; [3]) [nM] | IC50 (CTX-M-14; [4]) [nM] | IC50 (KPC-2; [5]) [nM] | IC50 (VIM-1; [6]) [nM] | IC50 (VIM-1; [7]) [nM] | IC50 (VIM-2; [8]) [nM] | IC50 (IMP-1; [9]) [nM] | IC50 (NDM-5; [10]) [nM] | IC50 (NDM-5; [11]) [nM] | further results
1 | C[n+]1ccn(Cc2ccc3c(c2C(=O)O)OB(O)CC3)n1 [Compound 3] | 10 to 1000 | < 1000 | 10 to 1000 | 10 to 1000 | 10 to 1000 | 10 to 1000 | < 10 | < 1000 | 1000 to 100000 | 10 to 1000 | 1000 to 100000 | 10 to 1000 | < 1000 | 
2 | O=C(O)c1c(Cn2ccnn2)ccc2c1OB(O)CC2 [Compound 2] | 10 to 1000 | < 1000 | 10 to 1000 | 10 to 1000 | 10 to 1000 | 10 to 1000 | < 10 | < 1000 | 1000 to 100000 | 10 to 1000 | 1000 to 100000 | 10 to 1000 | < 1000 | 
3 | O=C(O)c1c(Cn2ccnc2)ccc2c1OB(O)CC2 [Compound 23] | 10 to 1000 | < 1000 | 10 to 1000 | 10 to 1000 | < 10 | 10 to 1000 | < 10 | < 1000 | 1000 to 100000 | 10 to 1000 | 1000 to 100000 | 10 to 1000 | < 1000 | 
4 | CCCc1cn(Cc2ccc3c(c2C(=O)O)OB(O)CC3)nn1 [Compound 4] | 10 to 1000 | < 1000 | 10 to 1000 | 10 to 1000 | 10 to 1000 | 10 to 1000 | < 10 |  | 1000 to 100000 | 1000 to 100000 | 10 to 1000 | 10 to 1000 | < 1000 | IC50 (IMP-1; [12]): < 1000 nM
5 | NCc1ccn(Cc2ccc3c(c2C(=O)O)OB(O)CC3)n1 [Compound 42] | 10 to 1000 | < 1000 | 10 to 1000 | < 10 | 10 to 1000 | 10 to 1000 | < 10 | < 1000 | 10 to 1000 | 10 to 1000 | 1000 to 100000 | 10 to 1000 | < 1000 | 
6 | O=C(O)c1c(CN2CC=CC2)ccc2c1OB(O)CC2 [Compound 26] | 1000 to 100000 |  | 10 to 1000 | 10 to 1000 | 10 to 1000 | 10 to 1000 | < 10 |  | 1000 to 100000 | 1000 to 100000 | 1000 to 100000 | 1000 to 100000 |  | 
7 | Nc1cnn(Cc2ccc3c(c2C(=O)O)OB(O)CC3)c1 [Compound 32] | 10 to 1000 | < 1000 | 10 to 1000 | 10 to 1000 | < 10 | < 10 | < 10 |  | 1000 to 100000 | 10 to 1000 | 1000 to 100000 | 10 to 1000 | < 1000 | 
8 | NCCN1Cc2cn(Cc3ccc4c(c3C(=O)O)OB(O)CC4)nc2C1 [Compound 70] | 10 to 1000 | < 1000 | < 10 | < 10 | 10 to 1000 | 10 to 1000 | < 10 | < 1000 | 10 to 1000 | 10 to 1000 | 10 to 1000 | 10 to 1000 | < 1000 | inhibitory activity on SHV-12 compared to control drugs (SHV-12; comparison in words): comparable to avibactam and tazobactam and superior to taniborbactam; inhibitory activity on TEM-1 compared to avibactam (TEM-1): better or comparable; inhibitory activity on OXA-48 compared to avibactam (OXA-48): better or comparable; inhibitory activity on CTX-M-14 compared to avibactam (CTX-M-14): better or comparable; inhibitory activity on KPC-2 compared to avibactam (KPC-2): better or comparable; IC50 (IMP-1; [12]): < 1000 nM
9 | N#CCCCc1cn(Cc2ccc3c(c2C(=O)O)OB(O)CC3)nn1 [Compound 6] | 1000 to 100000 |  | 10 to 1000 | 10 to 1000 | 10 to 1000 | 10 to 1000 | < 10 | < 1000 | 1000 to 100000 | 10 to 1000 | 1000 to 100000 | 10 to 1000 |  | 
10 | O=C(O)c1c(CN2C[C@H](O)CC2=O)ccc2c1OB(O)CC2 [Compound 44] | 10 to 1000 | < 1000 | 10 to 1000 | 10 to 1000 | 10 to 1000 | 10 to 1000 | 10 to 1000 | < 1000 | 10 to 1000 | 10 to 1000 | 1000 to 100000 | 10 to 1000 | < 1000 | 
11 | N#Cc1ccn(Cc2ccc3c(c2C(=O)O)OB(O)CC3)n1 [Compound 18] | 10 to 1000 | < 1000 | 10 to 1000 | < 10 | < 10 | 10 to 1000 | < 10 | < 1000 | 1000 to 100000 | 10 to 1000 | 1000 to 100000 | 10 to 1000 | < 1000 | inhibitory activity on TEM-1 compared to avibactam (TEM-1): better or comparable; inhibitory activity on OXA-48 compared to avibactam (OXA-48): better or comparable; inhibitory activity on CTX-M-14 compared to avibactam (CTX-M-14): better or comparable; inhibitory activity on KPC-2 compared to avibactam (KPC-2): better or comparable
12 | O=C(O)c1c(Cn2cc(CN3CCCC3)nn2)ccc2c1OB(O)CC2 [Compound 5] | 1000 to 100000 |  | 10 to 1000 | 10 to 1000 | 10 to 1000 | 10 to 1000 | < 10 | < 1000 | 1000 to 100000 | 10 to 1000 | 1000 to 100000 | 10 to 1000 |  | 
13 | O=C(O)c1c(Cn2cncn2)ccc2c1OB(O)CC2 [Compound 13] | 10 to 1000 | < 1000 | 10 to 1000 | 10 to 1000 | < 10 | < 10 | < 10 | < 1000 | 1000 to 100000 | 10 to 1000 | 1000 to 100000 | 10 to 1000 | < 1000 | 
14 | N#Cc1cccn1Cc1ccc2c(c1C(=O)O)OB(O)CC2 [Compound 25] | 1000 to 100000 |  | 10 to 1000 | 10 to 1000 | 10 to 1000 | 10 to 1000 | < 10 |  | 1000 to 100000 | 1000 to 100000 | 1000 to 100000 | 1000 to 100000 |  | 
15 | N=C(N)NCCc1cnn(Cc2ccc3c(c2C(=O)O)OB(O)CC3)c1 [Compound 50] | 1000 to 100000 |  | 10 to 1000 | 10 to 1000 | 10 to 1000 | 10 to 1000 | < 10 |  | 1000 to 100000 | 1000 to 100000 | 1000 to 100000 | 10 to 1000 |  | 
16 | Cc1nccn1Cc1ccc2c(c1C(=O)O)OB(O)CC2 [Compound 24] | 1000 to 100000 |  | 10 to 1000 | 10 to 1000 | < 10 | 10 to 1000 | < 10 | < 1000 | 1000 to 100000 | 10 to 1000 | 1000 to 100000 | 1000 to 100000 |  | 
17 | NC(=O)[C@@H]1CC[C@@H]2CN1C(=O)N2OS(=O)(=O)O [Avibactam, reference compound] | > 100000 |  | < 10 |  |  | < 10 |  |  | > 100000 | > 100000 | > 100000 | > 100000 |  | 
18 | O=C(O)c1c(Cn2nccn2)ccc2c1OB(O)C1CC21 (stereo not drawn) [Compound 27] |  |  |  | 10 to 1000 |  |  |  |  |  |  |  | 1000 to 100000 |  | IC50 (NDM-1): 1000 to 100000 nM; IC50 (OXA-48; Inhibitory activity on SBL OXA-48 (IC50 class)): < 10 nM; IC50 (CTX-M-14): 10 to 1000 nM; IC50 (KPC-2): < 10 nM; IC50 (VIM-1; Inhibitory activity on MBL VIM-1 (IC50 class)): 1000 to 100000 nM; IC50 (VIM-1; inhibitory activity at a nanomolar-level on VIM-1 and/or VIM-2, text summary, VIM-1 and/or VIM-2): < 1000 nM; IC50 (VIM-2): 10 to 1000 nM; IC50 (IMP-1): 1000 to 100000 nM

Reference: patent US20250205259A1, “CLASS OF 7-((FIVE-MEMBERED HETEROCYCLIC)METHYL)-8-CARBOXYLIC ACID-BENZO CYCLIC BORATE DERIVATIVES AND USES THEREOF” (priority 2022, published 2025)
